Results published in patent US10420761B2, “Allosteric inhibitors of thymidylate synthase” (UNIVERSITY OF FLORIDA RESEARCH FOUNDATION, INCORPORATED, priority 2013, dated 2019).
Like-named read-outs stand apart in the source and are kept apart here.

Experiments:
[1] = tested on: small cell lung cancer cell line H1048; assay: MTS cell viability assay, H1048; assay type: cell-based; details: Homo sapiens, NCI-H1048
Protocol: (§1) Antiproliferative effects of 27 novel TS inhibitors were tested by MTS assay (Promega) in human cancer cell lines representing several major tumor types known to overexpress TS including lung, cervical, pancreatic and hematopoietic tumors. Six compounds (S, U, P, M, G and J) reduced cell viability by more than 40% in both human cervical cancer HeLa (FIG. 6) and myelogenous leukemia K562 cell lines (FIG. 7).
(§2) Complete dose response relationships for five most promising compounds (P, U, S, M and G) have been established in pancreatic neuroendocrine cancer, pancreatic ductal cancer and small cell lung cancer cell lines (Table 3). […] In pancreatic neuroendocrine tumors Bon1 and CM—the range was larger with GI50 values within 0.1-100 μM (FIGS. 10, 11). Such discrepancy in response to drugs between Bon1 and CM cells can be explained at least in part by different tumor type of these cells. CM cells were derived from insulinoma, a typical beta cell tumor that secrets insulin while Bon cells are carcinoid tumors derived from lymph nodes that produce serotonin.
(§3) 27 top scoring compounds that were identified by in silico screening were tested in human cancer cell lines. Cancer cell lines used for inhibitor testing were maintained under 70% confluency in appropriate cell culture medium (typically DMEM, supplemented with 10% FBS, and 1% pen-strep). Small molecule compounds were obtained from NCI DTP, resuspended in DMSO to generate 50 mM stocks and stored in the dark. In all experiments, fresh compound preparations were used whenever possible and no more than 2 freeze-thaw cycles were allowed for all drug tested. Cells were seeded in 96-well plates in quadruplicates (4 wells/condition) at 4000 cells/well. Compound solutions were freshly prepared in the appropriate cell culture medium and were added the following morning to the cells. After 72-hour incubation with the compound, cell proliferation was measured by MTS assays (Promega) and compared to that of the untreated cells or control drug, such as 5-FU or pemetrexed. Dose-response parameters were determined by plotting percent cell proliferation after treatment from at least eight different compound concentrations and by using non-linear regression fit (4-parameter dose-response) in Sigmaplot. All results shown are representative of at least 3 independent experiments.

[2] = tested on: pancreatic neuroendocrine cell line Bon1; assay: MTS cell viability assay, Bon-1; assay type: cell-based
Protocol: as §1, §2, §3

[3] = tested on: pancreatic ductal adenocarcinoma cell line Panc-1; assay: MTS cell viability assay, Panc-1; assay type: cell-based; details: Homo sapiens, PDAC, 72-hour incubation, unit inferred
Protocol: as §1, §2, §3

[4] = tested on: small cell lung cancer cell line H1607; assay: MTS cell viability assay, H1607; assay type: cell-based; details: Homo sapiens, SCLC, 72-hour incubation, unit inferred
Protocol: as §1, §2, §3

[5] = tested on: pancreatic ductal adenocarcinoma cell line Miapaca-2; assay: MTS cell viability assay, MiaPaca-2; assay type: cell-based; details: Homo sapiens, MIA PaCa-2, PDAC, 72-hour incubation, unit inferred
Protocol: as §1, §2, §3

[6] = tested on: pancreatic neuroendocrine cell line CM (insulinoma); assay: MTS cell viability assay, CM; assay type: cell-based
Protocol: as §1, §2, §3

human cancer cell lines = assay: MTS cell viability assay, statements over several cell lines; assay type: cell-based; details: for GI50: Homo sapiens
Protocol: as §1, §2
(§4) We also tested the compounds S, U and P in mouse histiocytic sarcoma cell line that was derived from genetically engineered mouse model with p16 deletion and activated hTS overexpression. […] Dose-response curves and GI50 values for all compounds tested can be found in Table 3 and FIGS. 8-13.
as §3

in vivo = assay: in vivo
Protocol: (§5) SCID immunodeficient mice were i.p. injected daily for 3 weeks and kept under observation for one additional week. Animals' weights were measured daily and the data is presented as the percentage of weight change from day 1 of treatment to day 28 at the termination of the experiment (Table 4). FVB.129 immunocompetent mice were i.p. injected daily for 2 weeks and kept under observation for one additional week. Animals' weights were measure daily and the data is presented as the percentage of weight change from day 1 of treatment to day 21 at the termination of the experiment (Table 5).
as §5, with “The SCID immunodeficient” for “SCID immunodeficient”, “the data are presented as” for “the data is presented as”, “(Table 4). […] The FVB.129 immunocompetent” for “(Table 4). FVB.129 immunocompetent”, “weights were measured daily and” for “weights were measure daily and”

[7] = assay type: in vivo
Protocol: as §5, with “To establish the maximum tolerated dose (MTD) for most promising new inhibitors, both immunodeficient SCID and immunocompetent FVB.129 mice were treated daily with compound S and methylated version of compound S at 12.5, 50, and 100 MKG (mg/kg) by i.p. injection (Tables 4 and 5). SCID” for “SCID”
The SCID immunodeficient mice were i.p. injected daily for 3 weeks and kept under observation for one additional week. Animals' weights were measured daily and the data are presented as the percentage of weight change from day 1 of treatment to day 28 at the termination of the experiment (Table 4). The MTD for SCID mice for both compounds was 50 MKG. The FVB.129 immunocompetent mice were i.p. injected daily for 2 weeks and kept under observation for one additional week. Animals' weights were measured daily and the data are presented as the percentage of weight change from day 1 of treatment to day 21 at the termination of the experiment (Table 5). […] Thus, we have identified a derivative of compounds S that is less toxic to immunocompetent FVB.129 mice.

[8] = tested on: mouse histiocytic sarcoma cell line 5278mHS (p16 deletion, activated hTS); assay: MTS cell viability assay, mouse histiocytic sarcoma; assay type: cell-based
Protocol: as §4, §3

[9] = SCLC, 72-hour incubation, MTS, unit inferred, read-out: GI50 H1048
[10] = PNET, 72-hour incubation, MTS, unit inferred, read-out: GI50 Bon-1
[11] = PNET, 72-hour incubation, MTS, unit inferred, read-out: GI50 CM
[12] = NCI-H1048, range over small cell lung cancer cell lines H1607 and H1048 and the five compounds, read-out: GI50 values in the range
[13] = range over pancreatic ductal adenocarcinoma cell lines Miapaca-2 and Panc-1 and the five compounds, read-out: GI50 values between
[14] = up to, over the tested cell lines
[15] = mouse histiocytic sarcoma cell line, range over compounds S, U and P, read-out: GI50 values from
[16] = mouse histiocytic sarcoma, MTS, unit inferred, read-out: GI50 5278mHS

GI50 [1, 9] [µM]	GI50 [3] [µM]	GI50 [4] [µM]	GI50 [5] [µM]	GI50 [6, 11] [µM]	GI50 (human cancer cell lines; [12]) [µM]	GI50 (human cancer cell lines; [13]) [µM]	GI50 [8, 15] [µM]	GI50 [8, 16] [µM]	Compound	GI50 [2, 10] [µM]	GI50 ([1]; H1048 (SCLC), read-out: GI50) [µM]	animal found dead, D2 (in vivo; SCID mice, 100 MKG i.p. daily, single mice)	MTD at 3 weeks (in vivo; SCID, mouse, in vivo, ip, MTD) [mg/kg]	GI50 ([2]; Bon1 cells, read-out: GI50) [µM]	animal found dead, D6 ([7]; FVB.129 mice, 50 MKG i.p. daily, single mice)	animal found dead, D5 ([7]; FVB.129 mice, 100 MKG i.p. daily, single mice)	day after treatment at which animals died ([7]; FVB.129, mouse, in vivo, ip, 2 weeks) [days]	fold lower GI50 than 5-FU (human cancer cell lines; [14])	fold lower GI50 than pemetrexed (human cancer cell lines; [14])	GI50 ([6]; CM (insulinoma), read-out: GI50) [µM]
16	15	2.6	24	29	0.09 to 29	0.5 to 24	–	–	COc1ccc(Cc2c[nH]cc3c(=O)c(OC)ccc2-3)cc1O [Compound M, 4-(3-hydroxy-4-methoxybenzyl)-7-methoxyisoquinolin-8(2H)-one]	26	–	–	–	–	–	–	–	–	–	–
16	8.4	8.6	7	16	0.09 to 29	0.5 to 24	0.4 to 20	2.3	O[C@@H](c1cc(C(F)(F)F)nc2c(C(F)(F)F)cccc12)C1CCCCN1 (stereo partly drawn) [P, (1S)-(2,8-bis(trifluoromethyl)quinolin-4-yl)(piperidin-2-yl)methanol]	7.6	–	–	–	–	–	–	–	–	–	–

Further lines, the compound ahead of its results:

Compound	GI50 [1, 9] [µM]	GI50 [3] [µM]	GI50 [4] [µM]	GI50 [5] [µM]	GI50 [6, 11] [µM]	GI50 (human cancer cell lines; [12]) [µM]	GI50 (human cancer cell lines; [13]) [µM]	GI50 [8, 15] [µM]	GI50 [8, 16] [µM]	GI50 [2, 10] [µM]	GI50 ([1]; H1048 (SCLC), read-out: GI50) [µM]	animal found dead, D2 (in vivo; SCID mice, 100 MKG i.p. daily, single mice)	MTD at 3 weeks (in vivo; SCID, mouse, in vivo, ip, MTD) [mg/kg]	GI50 ([2]; Bon1 cells, read-out: GI50) [µM]	animal found dead, D6 ([7]; FVB.129 mice, 50 MKG i.p. daily, single mice)	animal found dead, D5 ([7]; FVB.129 mice, 100 MKG i.p. daily, single mice)	day after treatment at which animals died ([7]; FVB.129, mouse, in vivo, ip, 2 weeks) [days]	fold lower GI50 than 5-FU (human cancer cell lines; [14])	fold lower GI50 than pemetrexed (human cancer cell lines; [14])	GI50 ([6]; CM (insulinoma), read-out: GI50) [µM]
O=c1[nH]cc(F)c(=O)[nH]1 [Compound 5-FU, 5-fluorouracil, reference compound]	2.3	11	36	8.1	16	–	–	–	–	7.6	–	–	–	–	–	–	–	–	–	–
CN(Cc1ccoc1)Cc1nnc(SCCOc2ccccc2)n1C [Compound G, 1-(furan-3-yl)-N-methyl-N-((4-methyl-5-((2-phenoxyethyl)thio)-4H-1,2,4-triazol-3-yl)methyl)methanaminium]	4.3	15	29	9.7	32	0.09 to 29	0.5 to 24	–	–	0.39	–	–	–	–	–	–	–	–	–	–
CCc1nc(N)nc(N)c1-c1ccc(N(C)Cc2ccccc2)c([N+](=O)[O-])c1 [Compound S, 5-[4-[benzyl(methyl)amino]-3-nitrophenyl]-6-ethylpyrimidine-2,4-diamine]	0.096	0.93	8.2	0.48	0.093	0.09 to 29	0.5 to 24	0.4 to 20	0.42	100	0.096	FDN	≥ 50	100	FDN	FDN	6	up to 169 fold	up to 416 fold	0.093
Nc1nc2[nH]cc(CCc3ccc(C(=O)N[C@@H](CCC(=O)O)C(=O)O)cc3)c2c(=O)[nH]1 [Pemetrexed, pemetrexed, reference compound]	0.13	> 200	> 200	> 200	0.087	–	–	–	–	> 200	–	–	–	–	–	–	–	–	–	–
CCN(CC)C1=CC(=O)/C(=N/Nc2cc(Br)ccn2)C=C1 [U, (E)-6-(2-(4-bromopyridin-2-yl)hydrazono)-3-(diethylamino)cyclohexa-2,4-dienone]	3.1	1.3	2.5	12	13	0.09 to 29	0.5 to 24	0.4 to 20	21	2.4	–	–	–	–	–	–	–	–	–	–
